Results reported in ChEMBL document CHEMBL1135809 (J Med Chem, 2002).

Key:
[1] = biological target: Sigma non-opioid intracellular receptor 1 (Homo sapiens) (UniProt Q99720); assay: Selectivity ratio (Sigma1/Sigma2)
[2] = biological target: T1, 5-hydroxytryptamine receptor 1A (Mus musculus, UniProt Q64264); assay: Inhibition of […] binding to 5-hydroxytryptamine 1A receptor
T1 sequence (Q64264 whole entry): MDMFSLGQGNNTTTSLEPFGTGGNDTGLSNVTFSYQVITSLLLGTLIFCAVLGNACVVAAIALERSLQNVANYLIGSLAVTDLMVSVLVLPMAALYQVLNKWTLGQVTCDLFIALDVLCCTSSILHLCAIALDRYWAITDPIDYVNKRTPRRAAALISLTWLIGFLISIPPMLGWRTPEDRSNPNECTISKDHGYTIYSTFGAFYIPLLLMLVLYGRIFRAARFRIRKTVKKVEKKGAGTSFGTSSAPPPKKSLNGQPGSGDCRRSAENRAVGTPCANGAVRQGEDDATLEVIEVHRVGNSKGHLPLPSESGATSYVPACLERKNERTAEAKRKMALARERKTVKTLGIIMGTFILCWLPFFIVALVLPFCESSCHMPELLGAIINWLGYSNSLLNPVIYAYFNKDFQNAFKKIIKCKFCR

[3] = biological target: 5-hydroxytryptamine receptor 2A (Homo sapiens, UniProt P28223); assay: Inhibition of ketanserin binding to 5-hydroxytryptamine 2A receptor
[4] = biological target: T2, 5-hydroxytryptamine receptor 3A (Homo sapiens, UniProt P46098); assay: Inhibition of GR-65630 binding to 5-hydroxytryptamine 3 receptor
T2 sequence (P46098 whole entry): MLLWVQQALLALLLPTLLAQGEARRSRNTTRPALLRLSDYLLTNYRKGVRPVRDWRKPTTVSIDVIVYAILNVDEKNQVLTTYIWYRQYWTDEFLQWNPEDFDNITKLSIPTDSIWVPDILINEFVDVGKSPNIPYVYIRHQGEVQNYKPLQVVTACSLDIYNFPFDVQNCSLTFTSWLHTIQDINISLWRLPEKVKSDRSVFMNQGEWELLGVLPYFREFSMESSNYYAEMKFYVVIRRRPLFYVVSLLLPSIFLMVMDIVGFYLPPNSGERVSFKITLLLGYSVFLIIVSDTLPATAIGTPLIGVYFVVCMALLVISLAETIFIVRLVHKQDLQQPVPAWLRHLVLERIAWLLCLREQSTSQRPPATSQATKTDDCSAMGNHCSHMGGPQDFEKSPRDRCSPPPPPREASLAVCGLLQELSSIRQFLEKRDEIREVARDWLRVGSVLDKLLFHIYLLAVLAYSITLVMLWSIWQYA

D(1A) dopamine receptor = D(1A) dopamine receptor (Mus musculus, UniProt Q61616); assay: Inhibition of SCH 23390 binding to Dopamine receptor D1
Histamine H1 receptor = Histamine H1 receptor (Homo sapiens, UniProt P35367); assay: Inhibition of mepyramine binding to Histamine H1 receptor
[5] = biological target: Glutamate receptor ionotropic, NMDA 2C (Rattus norvegicus, UniProt Q00961); assay: Inhibition of MK 801 binding to NMDA, PCP receptor
Substance-P receptor = Substance-P receptor (Homo sapiens, UniProt P25103); assay: Inhibition of [Sar9,Met(O2)11]-SP binding to human Tachykinin receptor 1 (NK1)
Neuromedin-K receptor = biological target: T3, Neuromedin-K receptor (Homo sapiens, UniProt P29371); assay: Inhibition of [125I][MePhe7]-NKB binding to human Tachykinin receptor 3 (NK3)
T3 sequence (P29371 whole entry): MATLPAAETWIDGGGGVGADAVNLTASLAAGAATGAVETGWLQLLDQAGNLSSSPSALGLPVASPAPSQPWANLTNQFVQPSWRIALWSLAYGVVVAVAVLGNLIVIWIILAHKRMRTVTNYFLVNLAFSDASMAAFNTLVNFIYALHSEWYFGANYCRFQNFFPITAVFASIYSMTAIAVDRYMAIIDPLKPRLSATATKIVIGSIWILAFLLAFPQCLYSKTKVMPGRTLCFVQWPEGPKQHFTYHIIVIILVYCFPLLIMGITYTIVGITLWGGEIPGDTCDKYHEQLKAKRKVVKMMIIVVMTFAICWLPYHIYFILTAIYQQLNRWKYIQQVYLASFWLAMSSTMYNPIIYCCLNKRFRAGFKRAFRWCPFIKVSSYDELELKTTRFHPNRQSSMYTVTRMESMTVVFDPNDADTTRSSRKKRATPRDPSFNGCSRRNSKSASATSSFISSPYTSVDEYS

Substance-K receptor = biological target: T4, Substance-K receptor (Homo sapiens, UniProt P21452); assay: Inhibition of [125I]NKA binding to human Tachykinin receptor 2 (NK2)
T4 sequence (P21452 whole entry): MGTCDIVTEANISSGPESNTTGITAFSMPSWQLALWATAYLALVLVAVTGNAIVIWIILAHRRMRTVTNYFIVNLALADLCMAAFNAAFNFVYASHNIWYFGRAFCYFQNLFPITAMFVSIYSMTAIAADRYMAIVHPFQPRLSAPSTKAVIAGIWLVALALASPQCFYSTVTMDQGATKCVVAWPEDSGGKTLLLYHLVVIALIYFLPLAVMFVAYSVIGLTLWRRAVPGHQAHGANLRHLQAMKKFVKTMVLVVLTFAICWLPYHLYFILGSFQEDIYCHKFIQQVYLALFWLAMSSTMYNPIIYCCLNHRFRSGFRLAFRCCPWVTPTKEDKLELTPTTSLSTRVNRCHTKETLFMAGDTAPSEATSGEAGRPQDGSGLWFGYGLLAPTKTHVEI

[6] = biological target: T5, Alpha-2A adrenergic receptor (Homo sapiens, UniProt P08913); assay: Inhibition of idazoxane binding to noradrenaline alpha-2 receptor
T5 sequence (P08913 whole entry): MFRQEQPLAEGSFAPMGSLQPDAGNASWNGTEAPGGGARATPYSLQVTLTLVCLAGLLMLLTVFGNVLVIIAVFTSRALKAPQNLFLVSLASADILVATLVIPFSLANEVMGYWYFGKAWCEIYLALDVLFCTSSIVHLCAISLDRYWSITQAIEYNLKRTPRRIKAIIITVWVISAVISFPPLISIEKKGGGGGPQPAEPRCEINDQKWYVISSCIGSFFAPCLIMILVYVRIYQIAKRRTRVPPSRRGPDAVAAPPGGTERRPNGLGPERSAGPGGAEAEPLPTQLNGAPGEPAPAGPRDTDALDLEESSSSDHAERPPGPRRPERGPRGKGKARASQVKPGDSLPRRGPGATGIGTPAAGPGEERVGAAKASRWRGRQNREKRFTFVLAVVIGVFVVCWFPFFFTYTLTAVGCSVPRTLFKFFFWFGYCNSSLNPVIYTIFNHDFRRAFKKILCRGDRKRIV

[7] = The compound was tested for inhibition of noradrenaline reuptake; type: functional
[8] = Inhibition of prazosin binding to noradrenaline alpha-1 receptor
[9] = The compound was tested for inhibition of serotonin reuptake; type: functional

Chain of Sigma non-opioid intracellular receptor 1 (Homo sapiens) (Q99720 whole entry): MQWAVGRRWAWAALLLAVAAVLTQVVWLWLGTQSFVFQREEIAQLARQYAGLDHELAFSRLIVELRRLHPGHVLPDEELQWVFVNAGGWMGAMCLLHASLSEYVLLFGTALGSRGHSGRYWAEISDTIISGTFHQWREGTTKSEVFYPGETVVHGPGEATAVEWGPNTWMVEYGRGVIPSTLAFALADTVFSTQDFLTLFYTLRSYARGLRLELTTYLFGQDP
Chain of Histamine H1 receptor (P35367 whole entry): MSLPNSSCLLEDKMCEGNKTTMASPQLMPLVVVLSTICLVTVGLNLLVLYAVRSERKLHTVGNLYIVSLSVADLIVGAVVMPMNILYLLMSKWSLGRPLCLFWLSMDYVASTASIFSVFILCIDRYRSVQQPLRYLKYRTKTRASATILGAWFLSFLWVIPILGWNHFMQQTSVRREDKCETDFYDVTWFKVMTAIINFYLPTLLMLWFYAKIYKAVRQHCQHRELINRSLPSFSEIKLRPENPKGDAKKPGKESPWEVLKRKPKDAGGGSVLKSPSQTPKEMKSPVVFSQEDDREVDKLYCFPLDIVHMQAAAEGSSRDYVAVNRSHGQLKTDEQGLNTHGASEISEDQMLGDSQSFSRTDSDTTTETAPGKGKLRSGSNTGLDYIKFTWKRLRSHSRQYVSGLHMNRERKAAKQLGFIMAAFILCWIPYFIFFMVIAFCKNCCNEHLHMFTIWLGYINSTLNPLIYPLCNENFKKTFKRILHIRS
Chain of 5-hydroxytryptamine receptor 2A (P28223 whole entry): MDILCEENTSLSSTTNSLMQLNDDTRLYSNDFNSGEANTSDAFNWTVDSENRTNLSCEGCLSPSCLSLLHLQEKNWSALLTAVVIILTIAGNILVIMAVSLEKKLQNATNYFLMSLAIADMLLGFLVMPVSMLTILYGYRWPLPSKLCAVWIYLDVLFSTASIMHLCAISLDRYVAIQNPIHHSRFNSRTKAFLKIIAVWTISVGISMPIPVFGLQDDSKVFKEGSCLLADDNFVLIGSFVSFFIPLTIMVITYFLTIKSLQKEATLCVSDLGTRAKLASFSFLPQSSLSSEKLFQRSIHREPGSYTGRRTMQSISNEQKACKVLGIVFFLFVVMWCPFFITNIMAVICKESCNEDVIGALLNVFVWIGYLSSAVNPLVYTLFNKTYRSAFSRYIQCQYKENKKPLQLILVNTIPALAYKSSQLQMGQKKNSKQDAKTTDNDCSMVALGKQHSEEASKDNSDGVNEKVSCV
Chain of Glutamate receptor ionotropic, NMDA 2C (Q00961 whole entry): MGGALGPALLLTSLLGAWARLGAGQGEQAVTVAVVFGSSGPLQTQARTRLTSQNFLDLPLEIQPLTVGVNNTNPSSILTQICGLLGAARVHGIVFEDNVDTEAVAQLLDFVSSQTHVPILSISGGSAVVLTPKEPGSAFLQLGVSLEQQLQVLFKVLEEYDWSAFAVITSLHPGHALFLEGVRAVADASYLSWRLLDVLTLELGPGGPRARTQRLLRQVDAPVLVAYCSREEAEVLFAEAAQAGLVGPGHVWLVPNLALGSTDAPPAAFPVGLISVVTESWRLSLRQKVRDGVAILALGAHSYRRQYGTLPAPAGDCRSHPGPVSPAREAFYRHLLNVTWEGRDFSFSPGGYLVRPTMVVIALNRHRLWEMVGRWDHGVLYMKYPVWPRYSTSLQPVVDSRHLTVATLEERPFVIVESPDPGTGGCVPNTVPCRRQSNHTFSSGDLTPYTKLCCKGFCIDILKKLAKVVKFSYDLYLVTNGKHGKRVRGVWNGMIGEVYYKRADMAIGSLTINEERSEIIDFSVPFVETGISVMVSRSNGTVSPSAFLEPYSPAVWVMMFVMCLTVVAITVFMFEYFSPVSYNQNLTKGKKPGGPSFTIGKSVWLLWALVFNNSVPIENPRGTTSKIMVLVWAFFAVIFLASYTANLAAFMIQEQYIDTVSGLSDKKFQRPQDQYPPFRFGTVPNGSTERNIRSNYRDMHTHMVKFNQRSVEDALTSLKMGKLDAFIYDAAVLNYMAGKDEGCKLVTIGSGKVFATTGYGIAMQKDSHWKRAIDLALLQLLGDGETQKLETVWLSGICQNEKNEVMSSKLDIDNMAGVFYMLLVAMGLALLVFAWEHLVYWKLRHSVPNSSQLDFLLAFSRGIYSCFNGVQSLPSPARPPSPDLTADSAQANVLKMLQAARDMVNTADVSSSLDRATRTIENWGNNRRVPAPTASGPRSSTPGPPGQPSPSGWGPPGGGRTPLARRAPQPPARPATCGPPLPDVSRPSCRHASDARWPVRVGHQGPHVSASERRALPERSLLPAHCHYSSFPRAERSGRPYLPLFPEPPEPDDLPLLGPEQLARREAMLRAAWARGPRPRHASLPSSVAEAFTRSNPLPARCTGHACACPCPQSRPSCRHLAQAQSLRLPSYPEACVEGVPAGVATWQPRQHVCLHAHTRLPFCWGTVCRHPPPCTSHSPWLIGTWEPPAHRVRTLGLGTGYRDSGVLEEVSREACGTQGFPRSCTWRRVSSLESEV
Chain of Substance-P receptor (P25103 whole entry): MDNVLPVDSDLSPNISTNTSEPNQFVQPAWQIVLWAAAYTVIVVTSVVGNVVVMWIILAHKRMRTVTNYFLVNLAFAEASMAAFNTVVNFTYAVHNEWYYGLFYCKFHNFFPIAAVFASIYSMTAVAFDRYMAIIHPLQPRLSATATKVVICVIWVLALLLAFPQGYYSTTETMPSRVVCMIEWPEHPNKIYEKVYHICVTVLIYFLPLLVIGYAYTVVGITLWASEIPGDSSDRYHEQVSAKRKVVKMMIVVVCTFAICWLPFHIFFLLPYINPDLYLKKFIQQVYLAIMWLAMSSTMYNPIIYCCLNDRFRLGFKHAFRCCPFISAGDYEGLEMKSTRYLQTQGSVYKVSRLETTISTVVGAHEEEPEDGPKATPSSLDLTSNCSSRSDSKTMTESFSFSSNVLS
Chain of D(1A) dopamine receptor (Q61616 whole entry): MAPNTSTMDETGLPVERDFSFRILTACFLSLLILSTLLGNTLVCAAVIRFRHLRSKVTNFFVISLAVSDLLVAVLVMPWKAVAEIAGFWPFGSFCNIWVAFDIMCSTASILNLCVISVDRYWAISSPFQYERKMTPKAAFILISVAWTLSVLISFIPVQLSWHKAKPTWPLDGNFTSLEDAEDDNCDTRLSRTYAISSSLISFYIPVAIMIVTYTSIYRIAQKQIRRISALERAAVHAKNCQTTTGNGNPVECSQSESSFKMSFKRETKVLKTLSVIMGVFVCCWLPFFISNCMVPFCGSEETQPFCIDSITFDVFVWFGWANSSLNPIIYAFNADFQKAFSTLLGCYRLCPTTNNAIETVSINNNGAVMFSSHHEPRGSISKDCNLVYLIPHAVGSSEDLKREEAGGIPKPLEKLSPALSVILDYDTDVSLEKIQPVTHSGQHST

Compound	Selectivity ratio [1]	IC50 [2] [µM]	IC50 [3] [µM]	IC50 [4] [µM]	IC50 (D(1A) dopamine receptor) [µM]	IC50 (Histamine H1 receptor) [µM]	IC50 [5] [µM]	IC50 (Substance-P receptor) [µM]	IC50 (Neuromedin-K receptor) [µM]	IC50 (Substance-K receptor) [µM]	IC50 [6] [µM]	IC50 [7] [µM]	IC50 [8] [µM]	IC50 [9] [µM]
COC1Cc2ccccc2C2(CCN(CCCc3ccccc3)CC2)O1 (stereo unspecified)	–	> 1	0.46	> 10	> 10	8	> 10	> 10	> 10	> 10	3.1	0.51	1.4	0.7
COC1OC2(CCN(Cc3ccccc3)CC2)c2ccccc21 (stereo unspecified)	–	> 1	> 10	> 10	> 10	> 10	> 10	> 10	> 10	> 10	6.2	> 10	> 10	8
COC1Cc2ccccc2C2(CCN(C/C=C/c3ccccc3)CC2)O1 (stereo unspecified)	301	–	–	–	–	–	–	–	–	–	–	–	–	–
COC1Cc2ccccc2C2(CCN(Cc3ccccc3)CC2)O1 (stereo unspecified)	–	> 1	6.6	> 10	> 10	> 10	> 10	> 10	> 10	> 10	3	–	–	6

More lines, now with the values ahead:

Selectivity ratio [1]	IC50 [2] [µM]	IC50 [3] [µM]	IC50 [4] [µM]	IC50 (D(1A) dopamine receptor) [µM]	IC50 (Histamine H1 receptor) [µM]	IC50 [5] [µM]	IC50 (Substance-P receptor) [µM]	IC50 (Neuromedin-K receptor) [µM]	IC50 (Substance-K receptor) [µM]	IC50 [6] [µM]	IC50 [7] [µM]	IC50 [8] [µM]	IC50 [9] [µM]	Compound
236	–	–	–	–	–	–	–	–	–	–	–	–	–	OC1Cc2ccccc2C2(CCN(Cc3ccccc3)CC2)O1 (stereo unspecified)
30	–	–	–	–	–	–	–	–	–	–	–	–	–	COC1Cc2ccccc2C2(CCN(CCCCc3ccccc3)CC2)O1 (stereo unspecified)
2	–	–	–	–	–	–	–	–	–	–	–	–	–	OC1Cc2ccccc2C2(CCN(CCc3ccccc3)CC2)O1 (stereo unspecified)
